Assay: Study-2 safety/tolerability (adverse events)
Method: In total, 60 subjects were enrolled into five dose cohorts (n = 12 in each), and subjects were randomised (3:1) to receive seletalisib or placebo. Study-2 included initial dose cohorts of 30, 60 and 90 mg once-daily plus additional dose cohorts of 30 mg twice-daily and 45 mg once-daily.
Adverse events (AEs), serious AEs (SAEs), routine clinical laboratory parameters, vital signs and ECGs were monitored throughout the study periods and for ≤7 days post-administration of final-dose of seletalisib/placebo. The potential for seletalisib to cause gastrointestinal (GI) tract adverse effects was assessed by careful monitoring of subject reports of AEs such as abdominal pain, bloating, nausea, vomiting and alteration of bowel function (e.g. diarrhoea, constipation or bleeding). A formal safety review was conducted before each dose escalation. In Study-1 (Part-B), the potential for seletalisib to interfere with insulin signalling was assessed by monitoring blood glucose and C-peptide levels as part of the standard laboratory tests and by performance of oral glucose tolerance tests, measuring glucose and C-peptide levels, pre-dose and during exposure in all cohorts.
In each study, the primary population for analysis was the full analysis set (FAS), which comprised all subjects who had received ≥1 dose of seletalisib or placebo. PK analysis was performed on the PK per-protocol set (PK-PPS), which was a subset of the FAS consisting of subjects with no important protocol deviations likely to affect PK variables who received seletalisib; subjects who received placebo were excluded from this analysis. In Study-1 and Study-2, sample sizes of 57 and 36 subjects, respectively, were considered sufficient to permit assessment of the safety and tolerability of seletalisib and were not based on statistical considerations of power and sample size. In Study-1 (Part-A), a panel size of 15 subjects was selected to achieve good estimates of the PK/PD parameters.

## [O-][n+]1cccc(-c2nc3c(Cl)cccc3cc2[C@@H](Nc2ncnc3cccnc23)C(F)(F)F)c1 [Seletalisib, seletalisib]
Study-2, 30 mg BID
  Deaths: 0 n (%)
Study-2, 30 mg QD
  Deaths: 0 n (%)
Study-2, 45 mg QD
  Deaths: 0 n (%)
Study-2, 60 mg QD
  Deaths: 0 n (%)
Study-2, 90 mg QD
  Deaths: 0 n (%)
Study-2, seletalisib total
  Deaths: 0 n (%)
human, in vivo
  Any AE, number of events […]: 169
  number of rash-related AEs: 18
  number of subjects with AEs relating to GI disturbance: 10
  number of subjects with rash-related AEs: 12
  subjects who discontinued the study due to an AE: 13.3%
  subjects who experienced an AE: 71.1%
  subjects with SAEs: 4.4%
  subjects with headache: 24.4%
  subjects with rash: 24.4%
human, in vivo, 14 days
  Abdominal discomfort: 2 (4.4) n (%)
  Abdominal pain: 5 (11.1) n (%)
  Any AE: 32 (71.1) n (%)
  Dermatitis, contact: 4 (8.9) n (%)
  Diarrhoea: 3 (6.7) n (%)
  Discontinuations due to AEs: 6 (13.3) n (%)
  Discontinuations due to AEs, number of events […]: 6
  Dizziness: 5 (11.1) n (%)
  Drug-related AEs: 24 (53.3) n (%)
  Drug-related AEs, number of events […]: 136
  Dry mouth: 2 (4.4) n (%)
  Dysgeusia: 5 (11.1) n (%)
  Furuncle: 2 (4.4) n (%)
  Headache: 11 (24.4) n (%)
  Initial insomnia: 2 (4.4) n (%)
  Nausea: 6 (13.3) n (%)
  Oropharyngeal pain: 6 (13.3) n (%)
  Rash: 11 (24.4) n (%)
  Rash, generalised: 3 (6.7) n (%)
  Regurgitation: 2 (4.4) n (%)
  Serious AEs: 2 (4.4) n (%)
  Serious AEs, number of events […]: 2
  Severe AEs: 3 (6.7) n (%)
  Severe AEs, number of events […]: 3
  Somnolence: 2 (4.4) n (%)
  Toothache: 2 (4.4) n (%)
human, in vivo, po, 14 days
  Hypoaesthesia oral: 2 (4.4) n (%)
In vivo
  number of AEs relating to GI disturbance: Thirty-two
  number of infection-related AEs: four

— paper PMC5384962, “First-in-human studies of seletalisib, an orally bioavailable small-molecule PI3Kδ inhibitor for the treatment of immune and inflammatory diseases” (European Journal of Clinical Pharmacology, 2017)
